{
  "source": "patent US7598419B2",
  "about": "“Compounds for modulating cell proliferation” (HSC Research and Development Limited Partnership, priority 2004, dated 2009)",
  "key": {"[1]": {"system": "Ramos B cell Burkitt's lymphoma cells", "assay": "In vitro purging of Ramos cells", "assay_type": "cell-based", "settings": "50 μM, 5 hours exposure; FIG. 18", "method": "(§1) For the purging assay, the cells were resuspended in complete medium with or without CR4 as indicated and incubated at 37° C., 5% CO2 for 0-5 hours. Cells were then washed thoroughly with medium to remove the CR4, resuspended and plated in 1 ml volumes, in the absence of exogenous growth factors, into 35 mm petri dishes (Nunc, Gibco) containing RPMI 1640 (Gibco) plus 10% FCS (Cansera Rexdale, ON.) in 0.9% (vol/vol) methylcellulose (Fluka, Switzerland). Cultures were set at 37° C., 5% CO2 in a humidified atmosphere. Colonies consisting of more than 20 cells were counted at 12 days or earlier using an inverted microscope."}, "OCI-LY2 lymphoma cells": {"system": "OCI-LY2 lymphoma cells", "assay": "In vitro purging of OCI-Ly2 lymphoma cells", "assay_type": "cell-based", "settings": "5 hours exposure, FIG. 16", "method": "as §1, with “remove” for “remove the”, “volumes at 5×10^3 cells/ml,” for “volumes,”, “IMDM (OCI, Toronto)” for “RPMI 1640 (Gibco)”, “20% human cord blood plasma” for “10% FCS (Cansera Rexdale, ON.)”, “5” for “12”"}, "[2]": {"system": "OCI-AML-3 acute myeloid leukemia cells", "assay": "In vitro purging of OCI-AML-3 cells", "assay_type": "cell-based", "settings": "2.5-5 hours exposure, FIG. 17", "method": "as §1, with “remove” for “remove the”, “volumes at 5×10^3 cells/ml,” for “volumes,”, “alpha MEM” for “RPMI 1640”, “5” for “12”"}, "normal bone marrow cells": {"system": "normal bone marrow cells", "assay": "In vitro purging of normal bone marrow", "assay_type": "cell-based, human", "method": "Heparinized bone marrow cells were layered over Percoll (1.077 gm/ml) (Pharmacia Fine Chemical, Piscataway N.J.) and centrifuged at 400 g at 4° C. for 10 minutes to remove neutrophils and RBCs.\n(§2) For the purging process, the cells were resuspended at 1×10^6/ml in complete medium with or without 50 μM CR4. The cells were incubated with the CR4 for two and a half hours at 37° C., 5% CO2. At the end of this period the cells were thoroughly washed in medium to remove CR4 and then cultured at 2×10^5 cells/ml in IMDM (OCI, Toronto) containing 0.9% (vol/vol) methylcellulose supplemented with 30% FCS (Cansera Rexdale, ON.) or normal human plasma, a cocktail of cytokines containing G-CSF (10 ng/ml, Amgen), IL-3 (40 U/ml, Immunex), MGF (50 ng/ml, Immunex), Erythropoietin (2 u/ml, Epprex) or TPO (10 ng/ml, Amgen) and 5×10^−5M β-2-mercaptoethanol. The culture mixture was plated in 1 ml volumes into 35 mm petri dishes and incubated at 37° C., 5% CO2 in a humidified atmosphere. All cultures were evaluated at 14 days for the number of BFU-E colonies (defined as aggregates of more than 500 hemaglobinized cells or, 3 or more erythroid subcolonies), CFU-C colonies (defined as granulocyte or monocyte-macrophage cells or both) and CFU-GEMM colonies (a mixed population comprising of all elements).\nas §2, with “μM CR11.” for “μM CR4.”, “the tryrphostin” for “the CR4”, “for seven” for “for two and a half”, “remove CR11” for “remove CR4”, “methylcellulose supplementd” for “methylcellulose supplemented”, “500 hemoglobinized” for “500 hemaglobinized”"}, "[3]": {"system": "a variety of cancer cells", "assay": "Growth of cancer cells in culture (summary over cell types)", "assay_type": "cell-based"}, "[4]": {"system": "OCI-AML-3 acute myeloid leukemia cells", "assay": "Colony assay of OCI-AML-3 cells in culture", "assay_type": "cell-based", "settings": "colonies at 5-6 days; FIG. 4", "method": "OCI-AML-3 cells were plated in 35 mm petri dishes (Nunc, Gibco) in 1 ml volumes at a density of 3.3×10^3 cells/ml, in the absence of exogenous growth factors, containing alpha MEM plus 20% FCS (Cansera, Rexdale Ont.), and 0.9% (vol/vol) methylcellulose (Fluka, Switzerland) and the indicated concentrations of CR4. Cell cultures were incubated in a humidified atmosphere at 37° C. with 5% CO2. Colonies containing more than 20 cells were scored, using an inverted microscope, at 5-6 days."}, "[5]": {"settings": "50 μM, two and a half hours exposure, FIG. 14"}},
  "data": [
    {"compound": "N#C/C(=C\\C=C\\c1ccc(O)c(O)c1)C(=O)NCc1ccccc1", "note": "[CR4, (E,E)-2-(Benzylaminocarbonyl)-3-(3,4-dihydroxystyryl)acrylonitrile]", "values": [
      {"measurement": "killing of Ramos cells after purging", "setting": "[1]", "value": 70, "unit": "%"},
      {"measurement": "killing of OCI-Ly2 cells after purging", "setting": "OCI-LY2 lymphoma cells; 12.5 μM", "value": "significant killing"},
      {"measurement": "killing of OCI-Ly2 cells after purging", "setting": "OCI-LY2 lymphoma cells; 25-50 μM", "value": 90, "unit": "%"},
      {"measurement": "killing of OCI-AML-3 cells after purging", "setting": "[2]; 25 μM", "value": "significant killing"},
      {"measurement": "killing of OCI-AML-3 cells after purging", "setting": "[2]; 50 μM", "value": "significant killing"},
      {"measurement": "BFU-E colonies after purging", "setting": "normal bone marrow cells; [5]", "value": "slight drop"},
      {"measurement": "CFU-C colony numbers after purging", "setting": "normal bone marrow cells; [5]", "value": "increased significantly"},
      {"measurement": "colony formation of normal bone marrow after purging", "setting": "normal bone marrow cells; [5]", "value": "did not result in significant inhibition"},
      {"measurement": "normal bone marrow growth and differentiation after purging", "setting": "normal bone marrow cells; identical doses (25-50 μM) and times (2.5 to 5 hour)", "value": "unaffected"},
      {"measurement": "effectiveness against a variety of cell types", "setting": "[3]; Acute Lymphoblastic Leukemia, Philadelphia positive Leukemia, Acute Myeloid Leukemia", "value": "highly effective"},
      {"measurement": "toxicity to cancer cells", "setting": "[3]; low nanomolar doses, long term exposure", "value": "highly toxic"},
      {"measurement": "concentrations effecting complete inhibition of AML-3 cell proliferation and survival", "setting": "[4]", "value": "300 to 600", "unit": "nM"}
    ]}
  ]
}
